{
  "source": "patent US20250099412A1",
  "about": "“METHOD OF INHIBITING DEGRADING PROTEASE ACTIVITY IN AGING” (The Regents of the University of California, priority 2022, published 2025)",
  "key": {"[1]": {"tested_on": "mucin", "assay": "Mucin-containing mucus layer of small intestine stained with alcian blue", "assay_type": "in vivo, rat", "conditions": "old rats (100 weeks), two-week oral treatment; compared with old and young rats; FIG. 3B", "from_the_text": "(§1) Male Wistar rats (Harlan Sprague Dawley Inc., Indianapolis, IN) at maturity (4 months, 300 to 350 gm) and old age (24 months, 375 to 450 gm) were included in the study. The animals were maintained on standard laboratory chow (8604 Teklad rodent diet; Harlan Laboratories, Indianapolis, IN) without restriction and water ad libitum and maintained in separated room without pathogen-free conditions. […] A subgroup of old animals was given a serine protease inhibitor (tranexamic acid, 14 days) in drinking water (137 mM, exchanged daily) which at a minimum fluid consumption of 40 ml/day amounts to a minimum dose of 0.39 gm/kg/day for 350 gm body weight (BW). […]\nImages of the immunolabel density were recorded at different magnifications, from relatively low power overviews of the tissue (10× objective, numerical aperture 0.25) to higher magnification of single cells (at 60× oil immersion objective, numerical aperture 1.4). The images were recorded under standard light conditions under fixed settings of the substage condenser with a digital camera (Spot Insight GIGABIT camera, Sterling Height), so that the camera serves as a quantitative light intensity meter. Images were analyzed on a laboratory computer to minimize operator error (NIH Image, 1.61, public domain software, spatial resolution of 640×480 pixel). […]"}, "[2]": {"tested_on": "pancreatic trypsin", "assay": "Pancreatic trypsin immunohistochemistry on rat tissue sections (young, old, old-treated)", "assay_type": "in vivo", "conditions": "old rats (100 weeks), compared with old and young (16 weeks) rats", "from_the_text": "(§2) Male Wistar rats (Harlan Sprague Dawley Inc., Indianapolis, IN) at maturity (4 months, 300 to 350 gm) and old age (24 months, 375 to 450 gm) were included in the study. The animals were maintained on standard laboratory chow (8604 Teklad rodent diet; Harlan Laboratories, Indianapolis, IN) without restriction and water ad libitum and maintained in separated room without pathogen-free conditions. […] A subgroup of old animals was given a serine protease inhibitor (tranexamic acid, 14 days) in drinking water (137 mM, exchanged daily) which at a minimum fluid consumption of 40 ml/day amounts to a minimum dose of 0.39 gm/kg/day for 350 gm body weight (BW).\nA femoral venous catheter was placed after general anesthesia (pentobarbital sodium, 50 mg/kg [Abbott Laboratories, North Chicago, IL], intramuscularly after local anesthesia with 2% lidocaine HCl [Hospira, Inc, Lake Forrest, IL]). […]\nTo determine on the tissue sections the immunolabel density and distribution of serine proteases, pancreatic trypsin MoAb (D-1): sc-137077 (Santa Cruz) primary antibody was used, followed by secondary antibodies (MP-7601 for anti-rabbit IgG; MP-7602 for anti-mouse IgG; ImmPRESS Excel staining kit peroxidase). […] No counterstain was applied to facilitate quantitative label intensity measurements and since cellular and vascular structures are readily identified. […] All procedures were carried out under standardized conditions to permit quantitative comparison of label densities.\nSmall intestine: Full thickness tissue blocks of the wall of proximal jejunum (3 by 5 mm) were fixed from all sides in 10% formaldehyde. Serine proteases were detected with primary and secondary antibodies labeled with DAB (Peroxidase Substrate Kit, ab64238, ABCAM).\nImages of the immunolabel density were recorded at different magnifications, from relatively low power overviews of the tissue (10× objective, numerical aperture 0.25) to higher magnification of single cells (at 60× oil immersion objective, numerical aperture 1.4). […]"}, "[3]": {"tested_on": "collagen", "assay": "Collagen fragment labeling with biotin conjugated collagen hybridizing peptides (B-CHP)", "assay_type": "in vivo, rat", "conditions": "old rats (100 weeks), two-week oral treatment, compared with old and young (16 weeks) rats", "from_the_text": "as §1\nTissue sections were stained with B-CHP (stock solution, 150 mM; final applied solution 7.5. mM). […] The B-CHP label intensity on the sections was recorded by digital microscopy.\nImages of the immunolabel density were recorded at different magnifications, from relatively low power overviews of the tissue (10× objective, numerical aperture 0.25) to higher magnification of single cells (at 60× oil immersion objective, numerical aperture 1.4). The images were recorded under standard light conditions under fixed settings of the substage condenser with a digital camera (Spot Insight GIGABIT camera, Sterling Height), so that the camera serves as a quantitative light intensity meter. […]"}, "[4]": {"tested_on": "amylase", "assay": "Amylase staining of epithelial cells of the small intestine", "assay_type": "in vivo, rat", "conditions": "old rats (100 weeks), oral treatment for two weeks; compared with old and young rats; FIG. 3B", "from_the_text": "as §2"}},
  "data": [
    {"compound": "NC[C@H]1CC[C@H](C(=O)O)CC1", "note": "[tranexamic acid]", "values": [
      {"measurement": "mucin label density in villi of small intestine", "setting": "[1]", "result": "partially restored"},
      {"measurement": "pancreatic trypsin accumulation in cardiac muscle", "setting": "[2]; two-week oral treatment (137 mM in drinking water), FIG. 1A", "result": "reduces pancreatic trypsin accumulation"},
      {"measurement": "pancreatic trypsin accumulation in brain", "setting": "[2]; two-week oral treatment, FIG. 2A", "result": "reduces pancreatic trypsin accumulation"},
      {"measurement": "pancreatic trypsin accumulation in intestine", "setting": "[2]; two-week oral treatment, FIG. 3A", "result": "reduces pancreatic trypsin accumulation in old rats (100 weeks) to similar levels seen in young rats"},
      {"measurement": "collagen fragmentation in cardiac muscle", "setting": "[3]; FIG. 1B", "result": "reduces collagen fragmentation in cardiac muscle in old-treated rats below levels seen in old rats to levels similar to those seen in young rats"},
      {"measurement": "collagen fragmentation in brain", "setting": "[3]; FIG. 2B", "result": "reduces collagen fragmentation in rat brain in old-treated rats below levels seen in old rats to levels similar to those seen in young rats"},
      {"measurement": "increase in amylase in the small intestine of old rats", "setting": "[4]", "result": "attenuated"}
    ]}
  ]
}
